Data published in patent US7037673B2, “Dipeptide production method, L-amino acid amide hydrolase used therein, and production method of L-amino acid amide hydrolase” (Ajinomoto Co., Inc., priority 2001, dated 2006).
Residues, ends and D or L forms follow the SMILES beside them.

Assays:
[1] = system: His-Tag L-alanine amide hydrolase; assay: Study of substrate specificity using His-Tag purified enzyme; assay type: biochemical, Corynebacterium glutamicum strain ATCC 13286; conditions: pH 9.0, enzyme 0.0045 U/ml, 25° C., 3 hours; for peptide synthesized from L-alanine amide and test amino acid: 100 mM L-alanine amide, 150 mM test amino acid; for peptide produced from test amino acid amide and L-glutamine: 100 mM test amino acid amide, 150 mM L-glutamine
[2] = system: L-alanine amide hydrolase; assay: Production of L-alanyl-L-asparagine and L-alanyl-L-glutamine with purified enzyme; assay type: biochemical, Corynebacterium glutamicum strain ATCC 13286; conditions: 50 μmol L-alanine amide hydrochloride + 150 μmol L-asparagine or L-glutamine, 0.08 unit enzyme, 1 ml, pH 9.0, 30° C., 10 hours
Description: Hereinafter, the present invention will be explained in more detail by way of examples. However, the present invention should not be considered to be limited to these examples.
The L-alanine amide hydrolase uniformly purified in Example 2 was allowed to act on L-alanine amide hydrochloride and L-asparagine or L-alanine amide hydrochloride and L-glutamine to produce L-alanyl-L-asparagine or L-alanyl-L-glutamine. In the case of obtaining L-alanyl-L-asparagine, 200 μmol of Tris-HCl buffer (pH 9.0), 50 μmol or L-alanine amide hydrochloride, 150 μmol of L-asparagine and enzyme liquid containing 0.08 unit of L-alanine amide hydrolase were added and mixed to a final volume of 1 ml. In the case of obtaining L-alanyl-L-glutamine, the reactants were mixed under the same conditions as in the case of L-alanyl-L-asparagine with the exception of using 150 μmol of L-glutamine instead of 150 μmol of L-asparagine. Control experiments were established for the case of using one of the substrates or setting the lot in which enzyme was not added. The reaction was carried out at a reaction temperature of 30° C. for 10 hours, and the results of quantifying the target product are shown in Table 3.

[3] = system: L-alanine amide hydrolase; assay: Measurement of activity of L-alanine amide hydrolase (L-alanyl-L-glutamine formation, HPLC); assay type: biochemical, Corynebacterium glutamicum strain ATCC 13286; conditions: His-Tag purified enzyme
Method: Measurement of L-alanine amide enzyme activity was carried out by incubating a reaction mixture containing 50 mM L-alanine amide, 150 mM L-glutamine, 100 mM Tris-HCl buffer (pH 9.0), 10 mM EDTA and enzyme solution at 30° C. for 60 minutes followed by stopping the reaction by adding aqueous phosphoric acid (pH 1.5) equal to four volumes of the reaction mixture. The amount of L-alanyl-L-glutamine was determined by HPLC. For the unit of enzyme activity, enzyme activity that produces 1 μmol of L-alanyl-L-glutamine in 1 minute under these conditions was defined as 1 unit (U).
The conditions of HPLC used for analysis were as indicated below.
Mobile phase: (aqueous phosphoric acid solution (pH 2.1)), 2.5 mM sodium-1-octanesulfonate/methanol=10/1
Column temperature: 40° C.

[4] = compared with L-glutamine; cited from earlier work

SMILES | peptide synthesized from L-alanine amide and test amino acid [1] | further results
C[C@H](N)C(=O)N[C@@H](C)C(=O)O [L-alanyl-L-alanine] (H-Ala-Ala-OH) | 10.11 mM | –
C[C@H](N)C(=O)N[C@@H](CCCNC(=N)N)C(=O)O [L-alanyl-L-arginine] (H-Ala-Arg-OH) | 27.69 mM | –
C[C@H](N)C(=O)N[C@@H](CC(N)=O)C(=O)O [L-alanyl-L-asparagine] (H-Ala-Asn-OH) | – | Product concentration [2]: 8.4 mM
C[C@H](N)C(=O)N[C@@H](CCC(=O)O)C(=O)O [L-alanyl-L-glutamate] (H-Ala-Glu-OH) | 1.20 mM | –
C[C@H](N)C(=O)N[C@@H](CCC(N)=O)C(=O)O [L-alanyl-L-glutamine] (H-Ala-Gln-OH) | – | Product concentration [2]: 7.7 mM; production yield of Ala-Gln relative to L-alanine amide [3]: 7.2%; stability [4]: higher; water-solubility [4]: higher
C[C@H](N)C(=O)N[C@@H](Cc1c[nH]cn1)C(=O)O [L-alanyl-L-histidine] (H-Ala-His-OH) | 12.52 mM | –
CC[C@H](C)[C@H](NC(=O)[C@H](C)N)C(=O)O [L-alanyl-L-isoleucine] (H-Ala-Ile-OH) | 14.11 mM | –
CC(C)C[C@H](NC(=O)[C@H](C)N)C(=O)O [L-alanyl-L-leucine] (H-Ala-Leu-OH) | 9.60 mM | –
C[C@H](N)C(=O)N[C@@H](CCCCN)C(=O)O [L-alanyl-L-lysine] (H-Ala-Lys-OH) | 18.83 mM | –
CSCC[C@H](NC(=O)[C@H](C)N)C(=O)O [L-alanyl-L-methionine] (H-Ala-Met-OH) | 14.49 mM | –
C[C@H](N)C(=O)N[C@@H](Cc1ccccc1)C(=O)O [L-alanyl-L-phenylalanine] | 13.42 mM | –
C[C@H](N)C(=O)N1CCC[C@H]1C(=O)O [L-alanyl-L-proline] (H-Ala-Pro-OH) | 0.81 mM | –
C[C@H](N)C(=O)N[C@@H](CO)C(=O)O [L-alanyl-L-serine] (H-Ala-Ser-OH) | 24.67 mM | –
C[C@H](N)C(=O)N[C@H](C(=O)O)[C@@H](C)O [L-alanyl-L-threonine] (H-Ala-Thr-OH) | 20.76 mM | –
C[C@H](N)C(=O)N[C@@H](Cc1c[nH]c2ccccc12)C(=O)O [L-alanyl-L-tryptophan] (H-Ala-Trp-OH) | 10.09 mM | –
C[C@H](N)C(=O)N[C@@H](Cc1ccc(O)cc1)C(=O)O [L-alanyl-L-tyrosine] (H-Ala-Tyr-OH) | 1.52 mM | –
CC(C)[C@H](NC(=O)[C@H](C)N)C(=O)O [L-alanyl-L-valine] (H-Ala-Val-OH) | 9.72 mM | –
C[C@H](N)C(=O)NCC(=O)O [L-alanyl-glycine] (H-Ala-Gly-OH) | 7.54 mM | –
NCC(=O)N[C@@H](CCC(N)=O)C(=O)O [glycyl-L-glutamine] (H-Gly-Gln-OH) | – | peptide produced from test amino acid amide and L-glutamine [1]: 17.7 mM
NC(=O)CC[C@H](NC(=O)[C@@H](N)CC(=O)O)C(=O)O [α-L-aspartyl-glutamine] (H-Asp-Gln-OH) | – | peptide produced from test amino acid amide and L-glutamine [1]: 21.2 mM
